Consider two compounds from US20240239806A1, “COMPOUNDS, COMPOSITIONS AND METHODS OF TREATING DISORDERS” (Chengdu Anticancer Bioscience, Ltd., priority 2021, published 2024).

Test [1] deals with T98G. Briefly: MTT assay of cellular proliferation. Type of test: cell-based. To be noted: Homo sapiens, 50% inhibition of cellular proliferation. The method in brief:
(§1)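 Cells in DMEM with 5% FBS, seeded to 20–30% confluence over 15–24 h, then exposed to compound from 1 nM to 30 μM. MTT added at endpoint for 3–4 h, formazan solubilized and read at A570. EC50 taken as concentration giving 50% inhibition of proliferation.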
On the technique in general: Formazan colour is commonly taken as a measure of viable cells.

Test [2] deals with NCI-H460. Description: MTT assay of cellular proliferation. Type of test: cell-based. To be noted: Homo sapiens, 50% inhibition of cellular proliferation. The method in brief:
as §1

Test [3] deals with HCT116. Description: MTT assay of cellular proliferation. It is filed as cell-based. To be noted: Homo sapiens, HCT-116, 50% inhibition of cellular proliferation. The method in brief: as §1
The subject of test [4] is T2 HCC. Description: MTT assay of cellular proliferation. Type of test: cell-based. To be noted: Mus musculus, 50% inhibition of cellular proliferation. Summed up:
as §1

The subject of test [5] is NCI-H23. Description: MTT assay of cellular proliferation. The following applies: Homo sapiens, 50% inhibition of cellular proliferation. Type of test: cell-based. The method in brief:
as §1

Test [6] deals with Hela. Briefly: MTT assay of cellular proliferation. It is filed as cell-based. To be noted: Homo sapiens, 50% inhibition of cellular proliferation. Summed up: as §1
Test [7] concerns MDA-MB-231. Description: MTT assay of cellular proliferation. Type of test: cell-based. The following applies: Homo sapiens; MDA-MB-231, MTT, 50% inhibition of cellular proliferation. The method in brief:
as §1

The test system of test [8] is NCI-H596. Briefly: MTT assay of cellular proliferation. It is filed as cell-based. The following applies: Homo sapiens, 50% inhibition of cellular proliferation. Summed up: as §1
Test [9] deals with T98G. Briefly: MECP in cancer cell line. Type of test: cell-based. The following applies: Homo sapiens. The method in brief:
(§2)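 Potency reported in bins: A 1 nM-1.0 μM, B to 10.0 μM, C to 30.0 μM, D above 30.0 μM. Compounds (1 nM-30 μM) applied to cells in DMEM/5% FBS; imaging-based readout at 24-72 h of mitotic index (raised at 24 h) and polyploidy (48 h), marking cytokinetic failure.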

In test [10] the test system is NCI-H460. Description: MECP in cancer cell line. It is filed as cell-based. The following applies: Homo sapiens. The method in brief: as §2
Test [11] concerns HCT116. Description: MECP in cancer cell line. Type of test: cell-based. The following applies: Homo sapiens, HCT-116. The method in brief: as §2
For test [12], the system named is T2 HCC. Briefly: MECP in cancer cell line. To be noted: Mus musculus. Type of test: cell-based. The method in brief: as §2
Test [13] concerns Hela. Description: MECP in cancer cell line. It is filed as cell-based. To be noted: Homo sapiens. The method in brief: as §2
Test [14] relates to MDA-MB-231. Description: MECP in cancer cell line. Type of test: cell-based. To be noted: Homo sapiens. Summed up: as §2
Test [15] relates to NCI-H596. Briefly: MECP in cancer cell line. Type of test: cell-based. To be noted: Homo sapiens. The method in brief: as §2
Test [16] concerns cervical cancer cell line Hela. Description: Soft agar colony formation assay. Type of test: cell-based, human. From the text: (§3) Measuring the ability of cells to grow in soft agar has been popularly believed as the gold standard assay for cellular transformation in vitro. In the Soft Agar Assay, cells grow from single cells to cell colonies in a semi-solid agar solution that keeps them away from the solid surface and allows growth in an anchorage-independent way.
(§4) The anchorage-independent growth of cells is one of the hallmarks of cancer cells. Normal epithelial cells are supported by basement membranes that provide survival and proliferative signals while undergo a type of apoptosis called anoikis when lose their attachment to the extracellular matrix. Cancer cells, in contrast, evade detachment-induced apoptosis, leading to uncontrolled proliferation and metastasis. The Soft Agar Colony Formation Assay allows testing of the therapeutic efficacy of compounds against anchorage-independent 3D growth of cancer cells in vin. The assay was performed in 6-well plates with two layers of agar. For the first, 0.75% agar in DMEM medium was melted in a microwave oven and poured to form a bottom layer. Once solidified, 10-100K cells in 1 ml of DMEM containing 0.35% agar was added to form the top layer, which was later covered with 0.5 ml of DMEM. Cell culture medium was changed once every two days until colonies were ready to photograph. We test the antitumor activity of select compounds in soft agar colony formation assays. […] The suppression of growth of these three cancer cell lines in 3D culture is consistent with the potent impact of these compounds on cellular proliferation in 2D culture.

Another test concerns RPEMYC^H2B-GFP cells. Briefly: Phenotypic screening assay (mitotic arrest, polyploidy). Type of test: cell-based. To be noted: 1 nM to 30 μM; for pIC50: read-out: Proliferative arrest (>50%). The method in brief: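 RPE cells expressing MYC and H2B-EGFP treated with compound at 1 nM–30 μM; mitotic index scored at 24 h and polyploidy (DNA content) at 48 h by automated imaging, with reads at 24, 48 or 72 h. Hits show transient mitotic arrest followed by polyploid accumulation.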

The test system of test [17] is NCI-H23. Briefly: MECP in cancer cell line. It is filed as cell-based. To be noted: Homo sapiens. The method in brief:
as §2

The subject of a further test is Human Cancer Cells. Briefly: Anchorage-independent growth in 3D culture (FIG. 3). Type of test: cell-based. To be noted: FIG. 3 legend, cell line not named.
From the text: as §3, §4

Setting [18] is: read-out: Min. Effective conc. for Polyploidy (≥5%).

pEC50, pIC50: −log10 of the molar value. Like-named read-outs stand apart in the source and are kept apart here.

Consider `COC(=O)c1cc(OC)cc(Oc2ccnc3ccccc23)c1` [Compound 8, Methyl 3-methoxy-5-(quinolin-4-yloxy)benzoate], for which the pEC50 in the test with T98G [1] is 5.00 to 6.00; in the test on NCI-H460 [2], less than 4.52; with HCT116 [3], 6.00 to 9.00; in the test with T2 HCC [4] it was 6.00 to 9.00; in the test with NCI-H23 [5] it was 6.00 to 9.00; with Hela [6] it was 6.00 to 9.00. In addition, the pEC50 was 6.00 to 9.00 in the test on MDA-MB-231 [7] and 5.00 to 6.00 in the test with NCI-H596 [8]. Further, the minimal effective concentration in the test on T98G [9] was in the range of 1 to 10 µM; with NCI-H460 [10], 1 to 10 µM; with HCT116 [11], 0.001 to 1 µM; in the test on T2 HCC [12], 0.001 to 1 µM; with Hela [13], 0.001 to 1 µM; in the test on MDA-MB-231 [14], 0.001 to 1 µM. For the same compound, the minimal effective concentration in the test on NCI-H596 [15], with RPEMYC^H2B-GFP cells (setting [18]), in the test with RPEMYC^H2B-GFP cells (read-out: Mitotic Arrest (≥5%)) and in the test with NCI-H23 [17] was 0.001 to 1 µM each time. In addition, in [16], the “anchorage-independent growth in soft agar” value is given as “effectively suppressed the anchorage-independent growth”. The pIC50 in the test with RPEMYC^H2B-GFP cells was 6.00 to 9.00. In the test with Human Cancer Cells, the “Anchorage-independent Growth of Human Cancer Cells in 3D Culture” value was “Suppress the Anchorage-independent Growth”.
On to `COC(=O)c1cc(Oc2ccnc3ccccc23)cc(C(=O)OC)c1` [Compound 15, dimethyl 5-(quinolin-4-yloxy)isophthalate], for which the pEC50 with T98G [1] was 5.00 to 6.00; in the test on NCI-H460 [2], less than 4.52; with HCT116 [3] it was 6.00 to 9.00; with T2 HCC [4] it was 6.00 to 9.00; in the test on NCI-H23 [5], 6.00 to 9.00; in the test on Hela [6], 6.00 to 9.00. For the same compound, the pEC50 is 6.00 to 9.00 in the test with MDA-MB-231 [7] and 5.00 to 6.00 with NCI-H596 [8]. Moreover, the minimal effective concentration in the test with T98G [9] lay within 1 to 10 µM; in the test on NCI-H460 [10], 1 to 10 µM; in the test on HCT116 [11], 0.001 to 1 µM; in the test on T2 HCC [12], 0.001 to 1 µM; in the test on Hela [13], 0.001 to 1 µM; in the test on MDA-MB-231 [14] it was 0.001 to 1 µM. Besides, the minimal effective concentration with NCI-H596 [15], in the test on RPEMYC^H2B-GFP cells (setting [18]), with RPEMYC^H2B-GFP cells (read-out: Mitotic Arrest (≥5%)) and in the test with NCI-H23 [17] was 0.001 to 1 µM each time. The “anchorage-independent growth in soft agar” value in [16] is on record as “effectively suppressed the anchorage-independent growth”. Further, the pIC50 in the test with RPEMYC^H2B-GFP cells was 6.00 to 9.00. In the test with Human Cancer Cells, the “Anchorage-independent Growth of Human Cancer Cells in 3D Culture” value is “Suppress the Anchorage-independent Growth”.

For orientation: pEC50 means the negative decadic logarithm of the EC50, by convention in mol/L. A low value points to a high EC50.
